Measurements published in the NIST ThermoML archive (doi:10.1016/j.jct.2003.11.008).

How the values were obtained:
[1] = excess molar enthalpy (molar enthalpy of mixing); xn = mol fraction of the nth substance listed; settings: 318.15 K, 101.3 kPa, Liquid
[2] = xn = mol fraction of the nth substance listed; settings: 318.15 K, 101.3 kPa, Liquid

CCCCCCCCCCCCCCC [pentadecane] + CCCCOC(C)=O
Settings	excess molar enthalpy [kcal/mol]	excess molar volume [m3/mol]
[1], x2 = 0.0884	0.0988	–
[1], x2 = 0.1775	0.179	–
[1], x2 = 0.2593	0.249	–
[1], x2 = 0.3266	0.29	–
[1], x2 = 0.3936	0.322	–
[1], x2 = 0.4468	0.341	–
[1], x2 = 0.4996	0.353	–
[1], x2 = 0.5472	0.356	–
[1], x2 = 0.5896	0.353	–
[1], x2 = 0.6217	0.345	–
[1], x2 = 0.6332	0.341	–
[1], x2 = 0.6756	0.322	–
[1], x2 = 0.7198	0.298	–
[1], x2 = 0.7661	0.269	–
[1], x2 = 0.8132	0.232	–
[1], x2 = 0.8631	0.187	–
[1], x2 = 0.9114	0.132	–
[1], x2 = 0.9607	0.0673	–
[2], x2 = 0.1004	–	3.55e-07
[2], x2 = 0.1982	–	6.25e-07
[2], x2 = 0.2765	–	7.99e-07
[2], x2 = 0.3418	–	9.17e-07
[2], x2 = 0.417	–	9.97e-07
[2], x2 = 0.4757	–	1.034e-06
[2], x2 = 0.5299	–	1.057e-06
[2], x2 = 0.5843	–	1.052e-06
[2], x2 = 0.6319	–	1.024e-06
[2], x2 = 0.6767	–	9.8e-07
[2], x2 = 0.7173	–	9.26e-07
[2], x2 = 0.7606	–	8.62e-07
[2], x2 = 0.7836	–	8.17e-07
[2], x2 = 0.8619	–	5.97e-07
[2], x2 = 0.9208	–	3.91e-07
[2], x2 = 0.9647	–	1.72e-07

CCCCCCCCCCCCCCC [pentadecane] + CCCCCOC(C)=O
Settings	excess molar enthalpy [kcal/mol]	excess molar volume [m3/mol]
[1], x2 = 0.0764	0.0832	–
[1], x2 = 0.1647	0.162	–
[1], x2 = 0.2553	0.227	–
[1], x2 = 0.3274	0.268	–
[1], x2 = 0.3976	0.296	–
[1], x2 = 0.4632	0.312	–
[1], x2 = 0.5222	0.317	–
[1], x2 = 0.5758	0.314	–
[1], x2 = 0.6183	0.305	–
[1], x2 = 0.6614	0.286	–
[1], x2 = 0.7069	0.264	–
[1], x2 = 0.7552	0.235	–
[1], x2 = 0.8041	0.2	–
[1], x2 = 0.856	0.158	–
[1], x2 = 0.9056	0.111	–
[1], x2 = 0.955	0.057	–
[2], x2 = 0.097	–	2.96e-07
[2], x2 = 0.1823	–	5.2e-07
[2], x2 = 0.2485	–	6.56e-07
[2], x2 = 0.3223	–	7.83e-07
[2], x2 = 0.3863	–	8.63e-07
[2], x2 = 0.4452	–	9.09e-07
[2], x2 = 0.5075	–	9.32e-07
[2], x2 = 0.5553	–	9.44e-07
[2], x2 = 0.6017	–	9.31e-07
[2], x2 = 0.6519	–	9.05e-07
[2], x2 = 0.6946	–	8.56e-07
[2], x2 = 0.7436	–	7.87e-07
[2], x2 = 0.7672	–	7.53e-07
[2], x2 = 0.8482	–	5.78e-07
[2], x2 = 0.9107	–	3.7e-07
[2], x2 = 0.9606	–	1.78e-07
